Results published in ChEMBL document CHEMBL1201862, “PubChem BioAssay data set” (2004).
Active and inactive are the calls of the source.

Experiments:
Large T antigen = Large T antigen (Simian virus 40, UniProt P03070); type: functional, Betapolyomavirus macacae;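 also: Confirmatory-stage PubChem screen for compounds that inhibit SV40 T antigen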
[1] = molecular target: Dual specificity tyrosine-phosphorylation-regulated kinase 1A (Rattus norvegicus, UniProt Q63470); type: biochemical, Homo sapiens
[2] = molecular target: T1, Polyadenylate-binding protein 1 (Homo sapiens, UniProt P11940); experiment: PABP1 MLLE–PAM2 interaction inhibitors, dose response, miRNA deadenylation inhibitor project, biochemical, fluorescence polarization, Cy5-PAM2 peptide, secondary (AID 602260); type: functional; details: read-out: IC50_Mean
[3] = molecular target: T1, Polyadenylate-binding protein 1; experiment: PABP1 MLLE–PAM2 binding inhibitor potency, dose response, biochemical, fluorescence polarization, FITC-PAM2 peptide (AID 602259); type: functional; details: read-out: IC50_Mean
[4] = inhibitors of firefly luciferase expression or activity, dose response, H4 neuroglioma cells, luminescence (AID 1990); type: functional, cell-based
[5] = Luminescence Cell-Based Dose Response HTS to Identify Inhibitors of 5'UTR Stem-Loop Driven Prion Protein mRNA Translation in H4 Neuroglioblastoma Cells. [Related pubchem assays: 1827 (Project Summary), 1813 (Primary HTS)]; type: functional
[6] = inhibitors of SNCA 5'UTR-driven reporter translation, confirmation, H4 neuroglioma cells, luminescence (AID 1988); type: functional, cell-based
[7] = inhibitors of intracellular T. cruzi replication, confirmation, NIH3T3 host cells, beta-gal luminescence (AID 2044); type: functional, cell-based;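 also: intracellular parasites grown in NIH/3T3 mouse fibroblasts as host cells; luminescent beta-galactosidase reporter signal from transgenic T. cruzi replicating inside host cells; inhibitors lower the luminescence signal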
[8] = cytotoxicity toward NIH3T3 fibroblasts, dose response, counter-screen, cell-based, ATP luminescence, mouse fibroblasts (AID 2010); type: functional;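 also: cells exposed to compound for about 90 hours before reading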
Vero [9] = experiment: cells; type: functional, cell-based; details: Chlorocebus sabaeus
H9c2 = experiment: cells; type: functional, cell-based; details: Rattus norvegicus, H9c2, Myocardium;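 also: confirmatory concentration-response retest of ultra-high-throughput screening hits for modulation of myocardial damage; cell death induced by hydrogen peroxide oxidative stress; compound pretreatment for 60 min then peroxide exposure for 2 h; potency is for protecting the cells against peroxide damage rather than for killing them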
Vero [10] = experiment: cells; type: functional; details: Chlorocebus sabaeus
Trypsin = Trypsin (Sus scrofa, UniProt P00761); experiment: porcine trypsin inhibitors, dose response, selectivity assay for Rce1 protease inhibitor project, biochemical, quenched peptide fluorescence, cherry-pick (AID 488789)
[11] = molecular target: T2, Ubiquitin-conjugating enzyme E2 N (Homo sapiens, UniProt P61088); type: functional;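 also: Dose-response confirmation in a TR-FRET assay detecting UBC13-driven polyubiquitin chain formation, inhibition measured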
T2 sequence (P61088 whole entry): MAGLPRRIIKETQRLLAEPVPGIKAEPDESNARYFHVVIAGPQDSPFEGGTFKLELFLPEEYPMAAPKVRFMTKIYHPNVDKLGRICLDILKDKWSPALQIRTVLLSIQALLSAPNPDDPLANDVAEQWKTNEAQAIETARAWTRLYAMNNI

CAAX prenyl protease 2 [12] = molecular target: CAAX prenyl protease 2 (Saccharomyces cerevisiae S288c, UniProt Q03530); type: biochemical
CAAX prenyl protease 2 [13] = molecular target: CAAX prenyl protease 2 (Homo sapiens, UniProt Q9Y256); experiment: human Rce1 protease inhibitors, dose response, biochemical, yeast membranes, quenched-peptide fluorescence, cherry-pick (AID 588849)
[14] = test system: Streptococcus sp. 'group A'; experiment: growth inhibition of control SK(-) GAS strain, dose response, counter-screen for streptokinase expression inhibitor project, luminescence, kanamycin, BacTiterGlo, confirmation (AID 1900); type: functional, organism-based
Streptokinase A = molecular target: T3, Streptokinase A (Streptococcus pyogenes serotype M1, UniProt P10520); experiment: S. pyogenes streptokinase expression inhibitors, potency, dose response, plasminogen activation absorbance, OD405 (AID 1914); type: functional, Streptococcus pyogenes M1 GAS;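 also: secreted streptokinase activity via plasminogen activation per viability signal from cell pellet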
T3 sequence (P10520 whole entry): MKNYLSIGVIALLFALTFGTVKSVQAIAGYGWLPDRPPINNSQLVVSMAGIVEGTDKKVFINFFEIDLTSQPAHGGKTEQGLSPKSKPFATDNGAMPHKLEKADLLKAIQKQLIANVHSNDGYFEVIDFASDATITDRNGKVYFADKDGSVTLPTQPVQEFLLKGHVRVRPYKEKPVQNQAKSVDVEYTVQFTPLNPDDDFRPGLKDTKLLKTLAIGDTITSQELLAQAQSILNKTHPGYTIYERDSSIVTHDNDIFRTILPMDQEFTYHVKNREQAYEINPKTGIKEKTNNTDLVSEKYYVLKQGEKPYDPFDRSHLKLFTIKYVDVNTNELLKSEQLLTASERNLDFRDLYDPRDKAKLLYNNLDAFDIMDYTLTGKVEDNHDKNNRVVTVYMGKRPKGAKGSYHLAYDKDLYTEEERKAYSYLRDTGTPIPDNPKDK

Streptococcus = experiment: Group A Streptococcus viability loss, dose response, counter-screen for streptokinase expression inhibitor project, luminescence, BacTiterGlo (AID 1915); type: functional, organism-based;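 also: potency for reduction of bacterial viability or growth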
Hexokinase HKDC1 = molecular target: T4, Hexokinase HKDC1 (Homo sapiens, UniProt Q2TB90); experiment: HKDC1 hexokinase inhibitors, dose response, biochemical, W721R variant (AID 504729); type: functional
T4 sequence (Q2TB90 whole entry): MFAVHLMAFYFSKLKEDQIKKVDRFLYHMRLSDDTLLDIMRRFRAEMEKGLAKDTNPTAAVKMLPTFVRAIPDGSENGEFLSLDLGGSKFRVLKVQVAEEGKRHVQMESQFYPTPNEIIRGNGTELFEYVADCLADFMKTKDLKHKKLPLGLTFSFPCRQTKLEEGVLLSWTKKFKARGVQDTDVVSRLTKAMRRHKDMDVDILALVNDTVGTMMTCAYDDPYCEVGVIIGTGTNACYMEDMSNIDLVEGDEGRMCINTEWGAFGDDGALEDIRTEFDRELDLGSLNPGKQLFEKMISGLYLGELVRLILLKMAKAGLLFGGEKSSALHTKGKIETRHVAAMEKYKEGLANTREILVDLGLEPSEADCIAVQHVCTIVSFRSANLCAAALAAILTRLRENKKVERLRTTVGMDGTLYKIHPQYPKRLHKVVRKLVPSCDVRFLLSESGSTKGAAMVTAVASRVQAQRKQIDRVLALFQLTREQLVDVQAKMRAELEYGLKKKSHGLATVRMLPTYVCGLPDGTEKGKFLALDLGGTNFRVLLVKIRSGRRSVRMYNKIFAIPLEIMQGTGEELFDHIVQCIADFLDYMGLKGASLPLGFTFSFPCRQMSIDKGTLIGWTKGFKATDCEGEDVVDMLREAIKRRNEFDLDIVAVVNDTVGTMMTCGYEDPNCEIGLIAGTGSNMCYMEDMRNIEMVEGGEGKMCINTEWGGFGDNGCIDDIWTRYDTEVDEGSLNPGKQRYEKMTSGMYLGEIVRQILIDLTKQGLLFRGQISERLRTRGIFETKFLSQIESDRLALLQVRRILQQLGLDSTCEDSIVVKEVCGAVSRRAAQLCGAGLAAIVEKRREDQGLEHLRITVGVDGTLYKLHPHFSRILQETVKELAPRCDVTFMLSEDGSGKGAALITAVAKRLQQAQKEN

Vero [15] = experiment: Vero cell cytotoxicity, cytotoxicity control for flavivirus capping enzyme inhibitors (AID 588742); type: functional; details: Chlorocebus sabaeus
Genome polyprotein = Genome polyprotein (dengue virus type 2, UniProt P29990); experiment: Dengue-2 NS5 methyltransferase inhibitors, primary screen, biochemical, confirmation dose response (AID 588689); type: functional
[16] = molecular target: T5, Microphthalmia-associated transcription factor (Homo sapiens, UniProt O75030); experiment: TRPM1 promoter luciferase signal decrease, dose response, MITF inhibitor project, cell-based, SK-MEL-5, cherry-picked, set 3 (AID 493073); type: functional
T5 sequence (O75030 whole entry): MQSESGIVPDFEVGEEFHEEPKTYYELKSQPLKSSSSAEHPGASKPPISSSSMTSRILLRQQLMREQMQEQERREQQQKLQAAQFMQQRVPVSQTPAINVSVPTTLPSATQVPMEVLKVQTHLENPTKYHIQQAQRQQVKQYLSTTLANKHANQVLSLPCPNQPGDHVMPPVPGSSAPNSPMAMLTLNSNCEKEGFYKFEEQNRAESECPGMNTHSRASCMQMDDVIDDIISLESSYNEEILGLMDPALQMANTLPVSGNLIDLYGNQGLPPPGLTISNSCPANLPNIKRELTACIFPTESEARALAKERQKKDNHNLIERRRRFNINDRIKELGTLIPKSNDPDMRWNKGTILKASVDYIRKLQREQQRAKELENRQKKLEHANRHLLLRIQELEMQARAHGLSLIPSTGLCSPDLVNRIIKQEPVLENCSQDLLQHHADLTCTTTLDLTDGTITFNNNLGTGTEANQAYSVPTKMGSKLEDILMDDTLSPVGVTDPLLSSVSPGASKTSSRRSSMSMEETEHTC

[17] = Fluorescence-based cell-based high throughput dose response assay for inhibitors of the interaction of nucleotide-binding oligomerization domain containing 2 (NOD2) and the receptor-interacting serine-threonine kinase 2 (RIPK2).; type: functional; details: Homo sapiens
Paired box protein Pax-8 = Paired box protein Pax-8 (Homo sapiens, UniProt Q06710); experiment: inhibitors of PAX8-driven TPO luciferase reporter, dose response, RMG-I cells, cherry-pick (AID 687027); type: functional, cell-based;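 also: luciferase reporter driven by Pax8 target thyroperoxidase promoter measured by SteadyGlo luminescence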
HEK293 [18] = experiment: cells; details: Homo sapiens
HEK293 [19] = experiment: cells; details: Homo sapiens; remark: listed apart in the source
A-375 [20] = experiment: MITF: Counter assay: A375 proliferation Measured in Cell-Based System Using Plate Reader - 2084-03_Inhibitor_Dose_DryPowder_Activity. [Related pubchem assays (depositor defined):AID488944]; type: functional; details: Homo sapiens
A-375 [21] = experiment: A375 melanoma cell viability reduction, dose response, counter-screen for MITF modulator project, cherry-pick samples, set 2 (AID 540335); type: functional, cell-based; details: Homo sapiens

T1 sequence (P11940 whole entry): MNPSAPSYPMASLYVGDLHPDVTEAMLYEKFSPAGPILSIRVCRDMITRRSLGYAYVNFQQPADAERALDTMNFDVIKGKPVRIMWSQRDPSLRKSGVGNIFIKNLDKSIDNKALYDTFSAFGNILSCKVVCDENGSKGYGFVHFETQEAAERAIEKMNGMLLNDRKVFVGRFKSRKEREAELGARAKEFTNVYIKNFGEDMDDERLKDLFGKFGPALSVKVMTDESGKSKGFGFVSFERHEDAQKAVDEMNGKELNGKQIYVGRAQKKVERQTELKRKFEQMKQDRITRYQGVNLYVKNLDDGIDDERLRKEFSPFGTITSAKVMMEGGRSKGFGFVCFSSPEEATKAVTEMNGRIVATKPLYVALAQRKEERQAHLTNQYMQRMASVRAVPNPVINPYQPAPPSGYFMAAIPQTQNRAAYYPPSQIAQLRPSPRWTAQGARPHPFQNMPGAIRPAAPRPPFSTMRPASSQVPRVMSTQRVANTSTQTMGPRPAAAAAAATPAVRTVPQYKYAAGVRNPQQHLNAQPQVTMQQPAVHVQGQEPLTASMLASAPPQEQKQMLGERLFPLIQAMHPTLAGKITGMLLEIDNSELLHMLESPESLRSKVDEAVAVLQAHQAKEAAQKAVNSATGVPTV
CAAX prenyl protease 2 (Homo sapiens, UniProt Q9Y256), sequence (Q9Y256 whole entry): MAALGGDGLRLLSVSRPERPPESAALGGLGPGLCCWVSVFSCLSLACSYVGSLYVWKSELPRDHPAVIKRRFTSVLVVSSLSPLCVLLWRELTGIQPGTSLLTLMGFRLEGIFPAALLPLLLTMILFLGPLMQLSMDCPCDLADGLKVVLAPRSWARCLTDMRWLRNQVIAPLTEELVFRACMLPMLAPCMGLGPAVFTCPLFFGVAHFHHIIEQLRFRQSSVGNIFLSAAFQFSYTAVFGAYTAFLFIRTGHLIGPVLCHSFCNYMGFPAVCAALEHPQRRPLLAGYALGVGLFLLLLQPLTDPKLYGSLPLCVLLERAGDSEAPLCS
Paired box protein Pax-8, sequence (Q06710 whole entry): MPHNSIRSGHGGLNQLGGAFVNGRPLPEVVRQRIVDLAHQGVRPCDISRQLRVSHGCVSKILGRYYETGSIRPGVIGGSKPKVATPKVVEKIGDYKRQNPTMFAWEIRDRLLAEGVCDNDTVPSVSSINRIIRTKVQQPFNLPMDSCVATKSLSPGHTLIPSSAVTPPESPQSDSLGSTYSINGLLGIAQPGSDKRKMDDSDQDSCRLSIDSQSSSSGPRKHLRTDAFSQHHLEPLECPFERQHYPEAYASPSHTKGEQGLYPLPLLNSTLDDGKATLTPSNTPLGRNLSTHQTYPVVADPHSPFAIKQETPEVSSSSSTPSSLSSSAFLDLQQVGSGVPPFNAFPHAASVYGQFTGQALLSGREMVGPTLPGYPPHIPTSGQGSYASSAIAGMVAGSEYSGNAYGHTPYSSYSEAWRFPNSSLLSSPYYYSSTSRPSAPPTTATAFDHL
Trypsin, sequence (P00761 whole entry): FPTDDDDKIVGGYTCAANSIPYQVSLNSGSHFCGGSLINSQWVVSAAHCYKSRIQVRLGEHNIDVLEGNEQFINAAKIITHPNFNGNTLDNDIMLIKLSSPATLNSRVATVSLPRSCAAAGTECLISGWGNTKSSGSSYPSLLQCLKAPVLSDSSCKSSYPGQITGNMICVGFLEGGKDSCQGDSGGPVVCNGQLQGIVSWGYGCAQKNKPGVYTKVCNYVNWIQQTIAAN
Genome polyprotein, sequence (P29990 2492-3391 limits assumed): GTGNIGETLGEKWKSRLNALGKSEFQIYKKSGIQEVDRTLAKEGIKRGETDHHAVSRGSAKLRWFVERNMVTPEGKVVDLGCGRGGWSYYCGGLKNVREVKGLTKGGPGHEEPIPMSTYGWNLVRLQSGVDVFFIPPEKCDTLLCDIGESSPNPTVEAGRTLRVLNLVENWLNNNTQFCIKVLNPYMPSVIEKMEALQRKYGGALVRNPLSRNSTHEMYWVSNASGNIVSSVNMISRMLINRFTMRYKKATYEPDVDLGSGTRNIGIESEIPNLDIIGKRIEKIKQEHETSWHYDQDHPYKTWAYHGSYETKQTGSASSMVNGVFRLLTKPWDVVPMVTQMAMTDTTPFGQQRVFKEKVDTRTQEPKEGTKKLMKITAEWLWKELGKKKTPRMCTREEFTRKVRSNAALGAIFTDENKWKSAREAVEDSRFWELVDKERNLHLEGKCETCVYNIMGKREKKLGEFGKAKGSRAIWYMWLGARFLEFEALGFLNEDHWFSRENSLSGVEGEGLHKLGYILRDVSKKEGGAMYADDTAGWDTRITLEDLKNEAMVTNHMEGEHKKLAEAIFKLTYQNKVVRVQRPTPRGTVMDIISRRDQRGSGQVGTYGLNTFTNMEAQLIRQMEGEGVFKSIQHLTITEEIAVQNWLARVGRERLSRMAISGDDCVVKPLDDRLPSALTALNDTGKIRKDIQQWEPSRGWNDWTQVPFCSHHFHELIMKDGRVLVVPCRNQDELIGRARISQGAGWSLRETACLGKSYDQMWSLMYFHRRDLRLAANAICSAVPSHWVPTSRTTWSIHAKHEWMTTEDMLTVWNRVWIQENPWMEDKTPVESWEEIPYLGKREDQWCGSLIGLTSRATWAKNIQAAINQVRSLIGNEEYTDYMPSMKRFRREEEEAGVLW
Large T antigen, sequence (P03070 whole entry): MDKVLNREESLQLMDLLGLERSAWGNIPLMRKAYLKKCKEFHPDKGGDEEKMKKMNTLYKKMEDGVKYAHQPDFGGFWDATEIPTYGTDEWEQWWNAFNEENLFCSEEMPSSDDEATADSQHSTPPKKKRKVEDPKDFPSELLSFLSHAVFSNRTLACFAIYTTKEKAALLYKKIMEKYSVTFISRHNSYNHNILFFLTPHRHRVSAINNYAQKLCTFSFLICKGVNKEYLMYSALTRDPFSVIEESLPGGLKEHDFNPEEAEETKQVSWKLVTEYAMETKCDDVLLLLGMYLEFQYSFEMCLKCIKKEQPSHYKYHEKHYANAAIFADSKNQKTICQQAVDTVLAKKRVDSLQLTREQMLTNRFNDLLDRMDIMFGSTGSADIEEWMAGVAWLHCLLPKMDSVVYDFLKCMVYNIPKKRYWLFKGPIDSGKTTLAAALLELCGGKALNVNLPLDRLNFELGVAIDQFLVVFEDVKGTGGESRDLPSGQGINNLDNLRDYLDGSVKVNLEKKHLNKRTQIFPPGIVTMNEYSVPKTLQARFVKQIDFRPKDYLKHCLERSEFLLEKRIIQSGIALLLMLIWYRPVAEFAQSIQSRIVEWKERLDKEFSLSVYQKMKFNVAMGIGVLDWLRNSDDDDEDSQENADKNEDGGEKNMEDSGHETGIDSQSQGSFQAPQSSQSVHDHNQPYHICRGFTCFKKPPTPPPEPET
CAAX prenyl protease 2 (Saccharomyces cerevisiae S288c, UniProt Q03530), sequence (Q03530 whole entry): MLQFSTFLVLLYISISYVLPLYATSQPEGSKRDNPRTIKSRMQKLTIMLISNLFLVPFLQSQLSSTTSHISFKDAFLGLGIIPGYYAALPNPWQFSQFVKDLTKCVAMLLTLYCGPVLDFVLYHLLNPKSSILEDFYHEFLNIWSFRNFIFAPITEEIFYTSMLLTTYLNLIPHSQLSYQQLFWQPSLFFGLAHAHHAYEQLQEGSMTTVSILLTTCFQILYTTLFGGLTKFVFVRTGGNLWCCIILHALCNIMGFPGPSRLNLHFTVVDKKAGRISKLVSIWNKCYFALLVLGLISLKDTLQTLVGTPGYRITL

Compound: OC1=C2Sc3ccccc3N=C2CCC1
- IC50 (Large T antigen): 9.55 µM (active)
- AC50 [1]: 8.45 µM (active)
- IC50 [2]: 35.2 µM (inactive)
- IC50 [3]: 59 µM (inactive)

Compound: CC(Oc1cccc(Cl)c1)C(=O)Nc1nc(-c2ccccn2)cs1 (stereo unspecified)
- EC50 [4]: 10.4 µM (active)
- EC50 [5]: 11.9 µM (active)
- EC50 [6]: 9.63 µM (active)
- EC50 [7]: 0.822 µM (active)
- EC50 [8]: 6.81 µM (active)
- IC50 (Vero [9]): > 25 µM (active)
- IC50 (H9c2): > 79 µM (inactive)
- CC50 (Vero [10]): 15.8 µM (active)

Compound: COc1ccc(-c2cc(C(=O)NCCCN3CCCC3=O)c3ccccc3n2)cc1
- AC50 (Trypsin): 9.31 µM (active)
- IC50 [11]: > 20 µM (inactive)
- AC50 (CAAX prenyl protease 2 [12]): 18 µM (active)
- AC50 (CAAX prenyl protease 2 [13]): 23.3 µM (active)

Compound: COc1ccc(C(=O)c2coc3c2C(=O)C(=O)c2ccccc2-3)cc1
- EC50 [14]: 1.84 µM (active)
- EC50 (Streptokinase A): > 150 µM (not active)
- EC50 (Streptococcus): 14.7 µM (active)
- IC50 (Hexokinase HKDC1): 11.3 µM (active)
- CC50 (Vero [15]): > 40 µM (active)
- CC50 (Vero [10]): > 25 µM (active)
- IC50 (Genome polyprotein): 34.5 µM (active)

Compound: O=C(Cn1ncc(Cl)c(Cl)c1=O)Nc1ccc2c(c1)OCO2
- AC50 [16]: 13.2 µM (active)
- IC50 [17]: 11.8 µM (inactive)
- AC50 (Paired box protein Pax-8): 4.07 µM (active)
- EC50 (HEK293 [18]): > 59.6 µM (inactive)
- EC50 (HEK293 [19]): > 59.6 µM (inactive)

Compound: Cc1ccc(-c2nc(CN3CCCCC3)cc(CN3CCCCC3)c2O)cc1
- AC50 (CAAX prenyl protease 2 [13]): 10.1 µM (active)

Compound: NC(=NOC(=O)c1ccncc1)c1cccc([N+](=O)[O-])c1
- AC50 (A-375 [20]): > 35 µM (active)
- AC50 (A-375 [21]): > 35 µM (active)
